How the values were obtained:
[1] = system: NIDD STZ rats; assay: Streptozotocin-induced NIDD diabetic rats, eight-day oral treatment, plasma biological parameters; type: in vivo, male Wistar rats; settings: for Glycaemia at D29 as percent of D21: values at D21 taken as 100%
Description: 40 male Wistar rats (Charles River, Saint Aubin les Elbeuf, France), with an average weight of 280 g, are used in this experiment. The animals are housed for one week in a standardised animal house, the following parameters of which are controlled: The forty rats are made diabetic by IP administration of 50 mg/kg of streptozotocin dissolved in physiological saline (a single administration). […] For each rat, 100 μl of blood are collected by venepuncture in a caudal vein, onto heparin, at time D0 (before the administration of STZ), at time D21 (21 days after STZ, before the treatments) and at D29 (after eight days of treatment). The samples are immediately centrifuged (10 minutes at 4000 rpm) and the plasma is separated from the blood cells. The samples are frozen until the time of determination of the biological parameters. After thawing the plasma samples, the above parameters are determined by enzymatic methods, using a COBAS automated machine (Roche). The glycaemia is measured by the hexokinase method; the cholesterol by the enzymatic final Randox point method; the triglycerides by the GPO-PAP method; the lactic acid by the lactic dehydrogenase method. The circulating insulin is measured by radioimmunoassay using CEA kits. The efficacy of the treatments is evaluated between […] by a t test adapted to paired series (for each rat, the value at D21 relative to D29 serves as the control).

[2] = system: NIDD rats, of STZ type; assay: Earlier study of glibenclamide 0.5 mg/kg daily in NIDD rats of STZ type; type: in vivo; settings: daily dose of 0.5 mg/kg
[3] = metformin 30 mg/kg/day group, D0 (before STZ)
[4] = metformin 30 mg/kg/day group, D21 (21 days after STZ, before treatment)
[5] = metformin (hydrochloride) 30 mg/kg/day orally in two doses, D29 (after eight days of treatment)
[6] = glibenclamide 1 mg/kg/day group, D0 (before STZ)
[7] = glibenclamide 1 mg/kg/day group, D21 (21 days after STZ, before treatment)
[8] = glibenclamide 1 mg/kg/day orally in two doses, D29 (after eight days of treatment)
[9] = glibenclamide 2 mg/kg/day group, D0 (before STZ)
[10] = glibenclamide 2 mg/kg/day group, D21 (21 days after STZ, before treatment)
[11] = glibenclamide 2 mg/kg/day orally in two doses, D29 (after eight days of treatment)
[12] = glibenclamide higher dose 2 mg/kg/day, D29 vs D21
[13] = glibenclamide low dose 1 mg/kg/day, D29 vs D21

In the case of `CN(C)C(=N)N=C(N)N` [Metformin, metformin], the glycaemia at D29 (% of D21) ([1]; Metformin 30 mg/kg/day) is reported as 86%, the “Glycaemia at D29 as percent of D21” value ([1]; Metformin 30 mg/kg/day) is reported as 86.03 +/− 4.29% and the Cholesterol [1, 3] is reported as 1.00 +/− 0.07 mM/l. The Glycaemia [1, 3] was 6.38 +/− 0.23 mM/l, the Insulinaemia [1, 3] was 12.8 +/− 0.2 μU/ml and the Lactates [1, 3] was 2.47 +/− 0.15 mM/l. For the same molecule, the Triglycerides [1, 3] was 0.96 +/− 0.12 mM/l, the Cholesterol [1, 4] was 1.57 +/− 0.08 mM/l and the Glycaemia [1, 4] was 14.41 +/− 0.36 mM/l. For the same molecule, the Lactates [1, 4] was 2.53 +/− 0.09 mM/l, the Triglycerides [1, 4] was 1.05 +/− 0.03 mM/l and the “Effect on lactates” value ([1]; metformin 30 mg/kg/day, eight days) was “tendency to increase”. For the same molecule, the Cholesterol [1, 5] was 1.48 +/− 0.06 mM/l, the Glycaemia [1, 5] was “**12.35 +/− 0.49 mM/l” and the Insulinaemia [1, 5] was 17.3 +/− 0.7 μU/ml. For the same molecule, the Lactates [1, 5] was “*2.70 +/− 0.11 mM/l”, the Triglycerides [1, 5] was 0.96 +/− 0.05 mM/l and the Decrease in glycaemia ([1]; metformin alone 30 mg/kg/day, D29 vs D21) was 13.7%.
With glibenclamide the “Activity of daily dose” value [2] was “inactive”, the “Glycaemia at D29 as percent of D21” value ([1]; Glibenclamide 2 mg/kg/day) was 93.49 +/− 1.15% and the Cholesterol [1, 6] was 1.03 +/− 0.04 mM/l. The Glycaemia [1, 6] was 6.39 +/− 0.17 mM/l, the Insulinaemia [1, 6] was 12.8 +/− 0.8 μU/ml and the Lactates [1, 6] was 2.19 +/− 0.07 mM/l. For the same molecule, the Triglycerides [1, 6] was 0.87 +/− 0.05 mM/l, the Cholesterol [1, 7] was 1.65 +/− 0.08 mM/l and the Glycaemia [1, 7] was 14.22 +/− 0.65 mM/l. For the same molecule, the Insulinaemia [1, 7] was 16.7 +/− 0.8 μU/ml, the Lactates [1, 7] was 2.59 +/− 0.10 mM/l and the Triglycerides [1, 7] was 1.04 +/− 0.10 mM/l. For the same molecule, the Cholesterol [1, 8] was 1.42 +/− 0.08 mM/l, the Glycaemia [1, 8] was 14.66 +/− 0.47 mM/l and the Insulinaemia [1, 8] was “**1.92 +/− 0.8 μU/ml”. For the same molecule, the Lactates [1, 8] was “**1.33 +/− 0.15 mM/l”, the Triglycerides [1, 8] was 1.04 +/− 0.10 mM/l and the Cholesterol [1, 9] was 1.04 +/− 0.02 mM/l. For the same molecule, the Glycaemia [1, 9] was 6.49 +/− 0.13 mM/l, the Insulinaemia [1, 9] was 12.7 +/− 0.6 μU/ml and the Lactates [1, 9] was 2.33 +/− 0.12 mM/l. The Triglycerides [1, 9] was 0.88 +/− 0.06 mM/l, the Cholesterol [1, 10] was 1.49 +/− 0.04 mM/l and the Glycaemia [1, 10] was 14.66 +/− 0.73 mM/l. For the same molecule, the Insulinaemia [1, 10] was 17.0 +/− 1.0 μU/ml, the Lactates [1, 10] was 2.67 +/− 0.17 mM/l and the Triglycerides [1, 10] was 1.01 +/− 0.05 mM/l. The Cholesterol [1, 11] was 1.52 +/− 0.06 mM/l, the Glycaemia [1, 11] was “**13.70 +/− 0.66 mM/l” and the Insulinaemia [1, 11] was “**21.0 +/− 1.4 μU/ml”. The Lactates [1, 11] was “**1.38 +/− 0.13 mM/l”, the Triglycerides [1, 11] was 0.93 +/− 0.04 mM/l and the Glycaemia ([1]; glibenclamide 2 mg/kg/day orally in two doses, D29 (after eight days of treatment), listed as glibenclamide) was 13.70 +/− 0.66 mM/l. For the same molecule, the Decrease in glycaemia ([1]; glibenclamide alone 2 mg/kg/day, D29 vs D21) was 6.51%, the “Effect on insulinaemia” value [1, 12] was “still higher on average” and the “Effect on lactate levels” value [1, 12] was “significantly reduced”. For the same molecule, the “Effect on glycaemia” value ([1]; glibenclamide higher dose 2 mg/kg/day, D29 vs D21, paired t test) was “significantly decreases”, the “Effect on glycaemia” value [1, 13] was “does not modify” and the “Effect on insulinaemia” value [1, 13] was “significant increase”. The “Effect on level of circulating lactates” value [1, 13] was “decrease” and the Minimum active dose ([1]; orally in two doses, eight days, NIDD STZ rats) was 2 mg/kg/day.
